No end group written: not given here.

Series [1] can be described thus: Plasma stability of capped peptides (KAI-9706 modified step-wise at amino and carboxy termini). It is filed as in vitro ADME, rat. Conditions: versus uncapped KAI-9706. The source says:
Plasma stability of capped peptides was compared.

In another series the test system is cardiac tissue. Kind of series: Langendorff assay, in vitro post-ischemia model (CK release). The settings on record: versus the unmodified form. Set-up: species or system rat. The method, then: The ability of the capped composition to inhibit ischemic damage in a rat heat model (Langendorff Assay) was evaluated versus the uncapped form.
Another series deals with brain tissue. Kind of series: Stroke model, percent infarction. Type of series: in vivo. Conditions: versus uncapped KAI-9706. The method, then: KAI-1455 was tested in a stroke model.
The conditions of series [2]: versus KAI-9706 and KAI-9803.
The conditions of series [3]: versus KAI-9706 and KAI-9803. This is another data set of the same source.
For series [4] the following is noted: versus KAI-9706 and KAI-9803. This is another data set of the same source.
A short description of series [5]: Effect of D-peptides on plasma stability of KAI-9706. Conditions: All-L, scrambled or retro-inverso (R/I) carrier and cargo. As for the experimental part:
KAI-9706 was engineered with D-amino acids to determine their impact on peptide composition stability. Unmodified KAI-9706 was compared to a peptide composition with the same amino acid sequence, however the amino acids used were d-enantiomers instead of 1-amino acids. A retro-inverso version and a scrambled version of the peptide composition were also prepared.

Series [6] can be described thus: In vitro biological stability of linear epsilon PKC inhibitors in human serum. Type of series: in vitro ADME. The settings on record: LC/MS; for stability in human serum (percent remaining over time): 100 μg/ml, room temperature. As for the experimental part:
The peptides were then analyzed by LC/MS.

For `CC[C@H](C)[C@H](NC(=O)[C@@H]1CCCN1C(=O)[C@H](C)NC(=O)[C@H](CC(=O)O)NC(=O)[C@H](Cc1c[nH]cn1)NC(=O)[C@@H](N)CSSC[C@H](NC(C)=O)C(=O)N[C@@H](Cc1ccc(O)cc1)C(=O)NCC(=O)N[C@@H](CCCNC(=N)N)C(=O)N[C@@H](CCCCN)C(=O)N[C@@H](CCCCN)C(=O)N[C@@H](CCCNC(=N)N)C(=O)N[C@@H](CCCNC(=N)N)C(=O)N[C@@H](CCC(N)=O)C(=O)N[C@@H](CCCNC(=N)N)C(=O)N[C@@H](CCCNC(=N)N)C(=O)N[C@@H](CCCNC(=N)N)C(N)=O)C(=O)NCC(=O)N[C@@H](Cc1ccc(O)cc1)C(=O)N[C@@H](CC(=O)O)C(=O)O` [KAI-1455], in series [1], the plasma half life result is “increase the plasma half life”. Further, the “ability to inhibit ischemic damage (potency, CK release)” value with cardiac tissue was “Maintains In Vitro Potency”. In addition, in the series with brain tissue, the “protection to brain tissue as judged by percent infract” value is on record as “increased protection to brain tissue”. Further, the “stability in human serum (percent intact over time)” value in series [2] is “increased plasma stability”. In series [3], the “stability in pig serum (percent intact over time)” value was “increased plasma stability”. Moreover, the “stability in rat serum (percent intact over time)” value in series [4] is listed as “increased plasma stability”.
In the case of `CC[C@H](C)[C@H](NC(=O)[C@@H]1CCCN1C(=O)[C@H](C)NC(=O)[C@H](CC(=O)O)NC(=O)[C@H](Cc1c[nH]cn1)NC(=O)[C@@H](N)CSSC[C@H](N)C(=O)N[C@@H](Cc1ccc(O)cc1)C(=O)NCC(=O)N[C@@H](CCCNC(=N)N)C(=O)N[C@@H](CCCCN)C(=O)N[C@@H](CCCCN)C(=O)N[C@@H](CCCNC(=N)N)C(=O)N[C@@H](CCCNC(=N)N)C(=O)N[C@@H](CCC(N)=O)C(=O)N[C@@H](CCCNC(=N)N)C(=O)N[C@@H](CCCNC(=N)N)C(=O)N[C@@H](CCCNC(=N)N)C(=O)O)C(=O)NCC(=O)N[C@@H](Cc1ccc(O)cc1)C(=O)N[C@@H](CC(=O)O)C(=O)O` [KAI-9706], in series [5], the “% parent remaining at 15 mins” value is on record as 1%.
Regarding Ac-EAVSLKPTGGYGRKKRRQRRR-NH2 [KP-1678], the “stability in human serum (percent remaining over time)” value in series [6] was “increased stability”.
Still for that read-out and setting: for EAVSLKPTGGYGRKKRRQRRR-NH2 [KP-1633] the value was “increased stability”.
Turning to “KP-1680: linear epsilon PKC inhibitor peptide shown in FIG. 16 (EAVSLKPTGGYGRKKRRQRRR)”, the “degradation products / metabolized forms” value in series [6] (serum) is reported as “sequential cleavage of arginine residues from the C-terminus”.
